In patent publication US12503452B2 (Curza Global, LLC, priority 2019, dated 2025):

Columns and labels:
[1] = test system: E. coli S30 extract (bacterial protein synthesis); assay: E. coli S30 extract coupled transcription-translation luciferase assay (inhibition of bacterial protein synthesis); assay type: biochemical; details: class by IC50 or % inhibition @ 1 μM, read-out: S30 IC50 (μM/% inhib.)
Procedure, shortened: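 Luminescent read-out of luciferase made from pBESTluc DNA by E. coli S30 extract after 1 h at 37 °C with compound in an 8-point 2-fold series. Background came from no-DNA reactions. Percent inhibition was calculated against water-only controls.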

[2] = target: Rabbit Reticulocyte Lysate (eukaryotic protein synthesis); assay: Rabbit reticulocyte lysate luciferase assay (inhibition of eukaryotic protein synthesis); assay type: biochemical; details: class by IC50 or % inhibition @ 1 μM, read-out: Rabbit reticulocyte IC50 (μM/% inhib.)
Procedure, shortened: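 Compounds were tested in 8-point 2-fold dilution series for blocking luciferase synthesis in nuclease-treated rabbit reticulocyte lysate (30° C., 90 minutes). Luminescence read-out, corrected by no-RNA background, was expressed as % inhibition against water-only reactions.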

A. baumannii (Ab) = assay: Broth microdilution minimum inhibitory concentration (MIC); assay type: cell-based; details: Acinetobacter baumannii; A. baumannii; growth medium supplemented with sodium bicarbonate; read-out: Ab + bicarb MIC
Procedure, shortened: (§1)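 MICs were run in triplicate per CLSI microdilution (modified, 8 dilution steps), inoculating 5×10^4 CFU/well prepared from colonies grown at 35±2° C to 0.5 McFarland. Media: CAMHB alone, with 6.25 or 25 mM final sodium bicarbonate, or with 0–50% heat-inactivated human serum.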

E. coli (Ec) = assay: as above; assay type: cell-based; details: Escherichia coli, E. coli; growth medium supplemented with sodium bicarbonate; read-out: E. coli + bicarb MIC
Procedure, shortened: as §1

E. faecalis (Ef) = assay: as above; assay type: cell-based; details: Enterococcus faecalis, E. faecalis; growth medium supplemented with sodium bicarbonate; read-out: Ef + bicarb MIC
Procedure, shortened: as §1

P. aeruginosa (Pa) = assay: as above; assay type: cell-based; details: Pseudomonas aeruginosa, P. aeruginosa; growth medium supplemented with sodium bicarbonate; read-out: Pa MIC + bicarb
Procedure, shortened: as §1

S. aureus (Sa) = assay: as above; assay type: cell-based; details: Staphylococcus aureus, S. aureus; growth medium supplemented with sodium bicarbonate; read-out: Sa + bicarb MIC
Procedure, shortened: as §1

| SMILES | IC50 [1] [µM] | IC50 [2] [µM] | MIC (A. baumannii (Ab)) [µg/mL] | MIC (E. coli (Ec)) [µg/mL] | MIC (E. faecalis (Ef)) [µg/mL] | MIC (P. aeruginosa (Pa)) [µg/mL] | MIC (S. aureus (Sa)) [µg/mL] |
| --- | --- | --- | --- | --- | --- | --- | --- |
| C[C@@H]1CN(C(=O)C(C)(C)N)CCN1C(=O)Nc1ccn(-c2ccc(CCN3CCCC(N)CC3)cc2)c(=O)n1 (some centres unmarked) [Compound 90] | < 0.5 | > 1 | < 8 | < 8 | < 8 | > 32 | < 8 |
| CC(N)C1CCN(Cc2ccc(-n3ccc(NC(=O)N4CCN(C(=O)C(C)(C)N)CC4)nc3=O)cn2)CC1 (centres unmarked) [Compound 95] | < 0.5 | > 1 | > 32 | < 8 | > 32 | > 32 | 8 to 32 |
| CCC(N)C1CCCN(Cc2ccc(-n3ccc(NC(=O)N4CCN(C(=O)C(C)(C)N)CC4)nc3=O)cc2)C1 (centres unmarked) [Compound 110] | < 0.5 | > 1 | > 32 | < 8 | 8 to 32 | > 32 | < 8 |
| CN(Cc1ccc(-n2ccc(NC(=O)N3CCN(C(=O)C(C)(C)N)CC3)nc2=O)cc1)CC1CNC1 [Compound 111] | 0.5 to 1 | > 1 | > 32 | 8 to 32 | > 32 | > 32 | 8 to 32 |
| CC(C)(N)C(=O)N1CCN(C(=O)Nc2ccn(-c3ccc(CNCC4CNC4)cc3)c(=O)n2)CC1 [Compound 112] | < 0.5 | > 1 | > 32 | 8 to 32 | > 32 | > 32 | 8 to 32 |
| CC(C)(N)C(=O)N1CCN(C(=O)Nc2ccn(-c3ccc(CN[C@@H]4CC[C@H](N)C4)cc3)c(=O)n2)CC1 [Compound 114] | < 0.5 | > 1 | > 32 | < 8 | > 32 | > 32 | > 32 |
| CN(Cc1ccc(-n2ccc(NC(=O)N3CCN(C(=O)C(C)(C)N)CC3)nc2=O)cc1)[C@@H]1CC[C@H](N)C1 [Compound 115] | < 0.5 | > 1 | > 32 | < 8 | 8 to 32 | > 32 | < 8 |
| CCN(Cc1ccc(-n2ccc(NC(=O)N3CCN(C(=O)C(C)(C)N)CC3)nc2=O)cc1)[C@@H]1CC[C@H](N)C1 [Compound 116] | < 0.5 | > 1 | > 32 | < 8 | 8 to 32 | > 32 | 8 to 32 |
| CC(C)(N)C(=O)N1CCN(C(=O)Nc2ccn(-c3ccc(CN[C@H]4CC[C@H](N)CC4)cc3)c(=O)n2)CC1 [Compound 117] | < 0.5 | > 1 | > 32 | < 8 | < 8 | > 32 | < 8 |
| CN(Cc1ccc(-n2ccc(NC(=O)N3CCN(C(=O)C(C)(C)N)CC3)nc2=O)cc1)[C@H]1CC[C@H](N)CC1 [Compound 118] | < 0.5 | > 1 | 8 to 32 | < 8 | < 8 | 8 to 32 | < 8 |
| CCN(Cc1ccc(-n2ccc(NC(=O)N3CCN(C(=O)C(C)(C)N)CC3)nc2=O)cc1)[C@H]1CC[C@H](N)CC1 [Compound 119] | < 0.5 | > 1 | < 8 | < 8 | < 8 | < 8 | < 8 |
| CC(C)(N)C(=O)N1CCN(C(=O)Nc2ccn(-c3ccc(CN[C@H]4CC[C@@H](N)CC4)cc3)c(=O)n2)CC1 [Compound 120] | < 0.5 | > 1 | > 32 | < 8 | 8 to 32 | > 32 | < 8 |
| CN(Cc1ccc(-n2ccc(NC(=O)N3CCN(C(=O)C(C)(C)N)CC3)nc2=O)cc1)[C@H]1CC[C@@H](N)CC1 [Compound 121] | < 0.5 | > 1 | > 32 | < 8 | < 8 | > 32 | < 8 |
| CCN(Cc1ccc(-n2ccc(NC(=O)N3CCN(C(=O)C(C)(C)N)CC3)nc2=O)cc1)[C@H]1CC[C@@H](N)CC1 [Compound 122] | < 0.5 | > 1 | > 32 | < 8 | < 8 | > 32 | < 8 |
